By IC50 is commonly meant the concentration that inhibits the measured activity by half. In general, Aqueous solubility refers to the concentration that dissolves in the medium under given conditions. The half-life is how long it takes for the measured level to halve. A lower half-life goes with fast loss.

The structures appear in SMILES notation.

In the first data set the target is Human neutrophil elastase (Homo sapiens (Human), UniProt P08246). Put plainly: Human Neutrophil Elastase Assay. The data set is classed as biochemical. Particulars: human neutrophil elastase, substrate MeOSuc-Ala-Ala-Pro-Val-AMC 250 μM, pH 7.5; read-out: IC50.
Human neutrophil elastase, sequence (P08246 30-247): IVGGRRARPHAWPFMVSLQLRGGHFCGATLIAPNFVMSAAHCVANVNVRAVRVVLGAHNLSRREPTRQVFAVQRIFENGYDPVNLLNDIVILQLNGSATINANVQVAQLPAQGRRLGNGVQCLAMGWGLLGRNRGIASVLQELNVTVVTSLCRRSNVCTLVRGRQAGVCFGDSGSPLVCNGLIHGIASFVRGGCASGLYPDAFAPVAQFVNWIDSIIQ
Regarding `Cc1cc(C#N)ccc1C1C2=C(CCC2=O)N(c2cccc(C(F)(F)F)c2)C(=O)N1S(C)(=O)=O` (stereo not shown) [Example 37.1], the concentration for half-maximal inhibition (IC50) turned out to be 3.7 nM. Same read-out and setting: for `CS(=O)(=O)c1cc(C#N)ccc1C1C2=C(CCC2=O)N(c2cccc(C(F)(F)F)c2)C(=O)N1S(C)(=O)=O` (stereo not shown) [Example 37.3] the value was 1.9 nM.

Take `CS(=O)(=O)N1C(=O)N(c2cccc(C(F)(F)F)c2)C2=C(C(=O)CC2)C1c1ccc(C#N)cn1` (stereo not shown) [Example 38.1]: the IC50 turned out to be 37.7 nM. For `COc1cc(C#N)ccc1C1C2=C(CCC2=O)N(c2cccc(C(F)(F)F)c2)C(=O)N1S(C)(=O)=O` (stereo not shown) [Example 38.2], the IC50 amounted to 34.1 nM. In the case of `CS(=O)(=O)c1cc(C#N)ccc1C1C2=C(CCC2=O)N(c2ccnc(C(F)(F)F)c2)C(=O)N1S(C)(=O)=O` (stereo not shown) [Example 39, 3-(Methylsulfonyl)-4-(3-(methylsulfonyl)-2,5-dioxo-1-(2-(trifluoromethyl)pyridin-4-yl)-2,3,4,5,6,7-hexahydro-1H-cyclopenta[d]pyrimidin-4-yl)benzonitrile], the IC50 was found to be 7 nM. On to `N#Cc1ccc(C2C3=C(CCC3=O)N(c3cccc(C(F)(F)F)c3)C(=O)N2C(N)=O)cc1` (stereo not shown) [Example 40, 4-(4-Cyanophenyl)-2,5-dioxo-1-(3-(trifluoromethyl)phenyl)-4,5,6,7-tetrahydro-1H-cyclopenta[d]pyrimidine-3(2H)-carboxamide], for which the IC50 is 2.2 nM. For `CC(C)(O)CNC(=O)N1C(=O)N(c2cccc(C(F)(F)F)c2)C2=C(C(=O)CC2)C1c1ccc(C#N)cc1` (stereo not shown) [Example 41, 4-(4-Cyanophenyl)-N-(2-hydroxy-2-methylpropyl)-2,5-dioxo-1-(3-(trifluoromethyl)-phenyl)-4,5,6,7-tetrahydro-1H-cyclopenta[d]pyrimidine-3(2H)-carboxamide], the IC50 was determined as 1.4 nM.

Take `CC(C)(O)CNC(=O)N1C(=O)N(c2cccc(C(F)(F)F)c2)C2=C(C(=O)CC2)[C@@H]1c1ccc(C#N)cc1` [Example 41B, (S)-4-(4-Cyanophenyl)-N-(2-hydroxy-2-methylpropyl)-2,5-dioxo-1-(3-(trifluoro-methyl)phenyl)-4,5,6,7-tetrahydro-1H-cyclopenta[d]pyrimidine-3(2H)-carboxamide]: the IC50 came to 40.4 nM. Consider `N#Cc1ccc(C2C3=C(CCC3=O)N(c3cccc(C(F)(F)F)c3)C(=O)N2C(=O)NC2CC[S+]([O-])CC2)cc1` (stereo not shown) [Example 43, 4-(4-Cyanophenyl)-2,5-dioxo-N-(1-oxo-hexahydro-1λ^4-thiopyran-4-yl)-1-(3-(trifluoro-methyl)phenyl)-4,5,6,7-tetrahydro-1H-cyclopenta[d]pyrimidine-3(2H)-carboxamide], for which the 50% inhibitory concentration (IC50) is less than 1 nM. Still for that read-out and setting: for `N#Cc1ccc(C2C3=C(CCC3=O)N(c3cccc(C(F)(F)F)c3)C(=O)N2C(=O)NC2CCS(=N)(=O)CC2)cc1` (stereo not shown) [Example 44, 4-(4-Cyanophenyl)-2,5-dioxo-N-(1-imino-1-oxo-hexahydro-1λ^6-thiopyran-4-yl)-1-(3-(trifluoromethyl)phenyl)-4,5,6,7-tetrahydro-1H-cyclopenta[d]pyrimidine-3(2H)-carboxamide] the value was less than 1 nM. Regarding `CS(=O)(=O)c1cc(C#N)ccc1[C@@H]1C2=C(CCC2=O)N(c2cccc(C(F)(F)F)c2)C(=O)N1C(=O)NCC#N` [Example 47.3], the IC50 was less than 1 nM. On to `CC(C)(CO)NC(=O)N1C(=O)N(c2cccc(C(F)(F)F)c2)C2=C(C(=O)CC2)[C@H]1c1ccc(C#N)cc1S(C)(=O)=O` [Example 47.14], for which the IC50 was less than 1 nM. Take `CS(=O)(=O)c1cc(C#N)ccc1[C@@H]1C2=C(CCC2=O)N(c2cccc(C(F)(F)F)c2)C(=O)N1C(=O)NC1CCOCC1` [Example 47.15]: the IC50 is less than 1 nM. Consider `CS(=O)(=O)c1cc(C#N)ccc1[C@@H]1C2=C(CCC2=O)N(c2cccc(C(F)(F)F)c2)C(=O)N1C(=O)NCC1CC(O)C1` (stereo partly shown) [Example 47.16], for which the IC50 is less than 1 nM. In the case of `CS(=O)(=O)c1cc(C#N)ccc1[C@@H]1C2=C(CCC2=O)N(c2cccc(C(F)(F)F)c2)C(=O)N1C(=O)NCC1(O)CCC1` [Example 47.17], the IC50 is less than 1 nM. For the compound `CS(=O)(=O)c1cc(C#N)ccc1[C@@H]1C2=C(CCC2=O)N(c2cccc(C(F)(F)F)c2)C(=O)N1C(=O)N[C@H]1CCCC[C@@H]1O` [Example 47.21], the IC50 is less than 1 nM.

For the compound `CS(=O)(=O)c1cc(C#N)ccc1[C@@H]1C2=C(CCC2=O)N(c2cccc(C(F)(F)F)c2)C(=O)N1C(=O)NC1C2CC1C2` (stereo partly shown) [Example 48.2], the IC50 is less than 1 nM. On the same count and under the same terms, for `CS(=O)(=O)c1cc(C#N)ccc1[C@@H]1C2=C(CCC2=O)N(c2cccc(C(F)(F)F)c2)C(=O)N1C(=O)N[C@H]1CC[C@H](O)C1` [Example 48.4] the value was less than 1 nM.

Turning to `CNC(=O)N1C(=O)N(c2cccc(C(F)(F)F)c2)C2=C(C(=O)CC2)C1c1ccc(C#N)cc1F` (stereo not shown) [Example 49, 4-(4-Cyano-2-fluorophenyl)-N-methyl-2,5-dioxo-1-(3-(trifluoromethyl)phenyl)-4,5,6,7-tetrahydro-1H-cyclopenta[d]pyrimidine-3(2H)-carboxamide], the IC50 was 1.8 nM. Turning to `CCNC(=O)N1C(=O)N(c2cccc(C(F)(F)F)c2)C2=C(C(=O)CC2)C1c1ccc(C#N)cc1F` (stereo not shown) [Example 49.1], the half-inhibitory concentration (IC50) is 1.2 nM. The same measure, in the same setting: for `COCCNC(=O)N1C(=O)N(c2cccc(C(F)(F)F)c2)C2=C(C(=O)CC2)C1c1ccc(C#N)cc1F` (stereo not shown) [Example 49.2] the value was 1.3 nM. The same measure, in the same setting: with `CNC(=O)N1C(=O)N(c2cccc(C(F)(F)F)c2)C2=C(C(=O)CC2)[C@@H]1c1ccc(C#N)cc1F` [Example 49B, (R)-4-(4-Cyano-2-fluorophenyl)-N-methyl-2,5-dioxo-1-(3-(trifluoromethyl)phenyl)-4,5,6,7-tetrahydro-1H-cyclopenta[d]pyrimidine-3(2H)-carboxamide] the figure was 173 nM; with `CNC(=O)N1C(=O)N(c2cccc(C(F)(F)F)c2)C2=C(C(=O)CC2)C1c1ccc(C#N)cc1C` (stereo not shown) [Example 50.2], less than 1 nM; with `CNC(=O)N1C(=O)N(c2cccc(C(F)(F)F)c2)C2=C(C(=O)CC2)C1c1ccc(C#N)cc1Cl` (stereo not shown) [Example 50.4], 1.2 nM.

On to `CNC(=O)N1C(=O)N(c2cccc(C(F)(F)F)c2)C2=C(C(=O)CC2)C1c1ccc(C#N)cc1[S+](C)[O-]` (stereo not shown) [Example 50.5], for which the IC50 is less than 1 nM. Consider `CNC(=O)N1C(=O)N(c2cccc(C(F)(F)F)c2)C2=C(C(=O)CC2)C1c1ccc(C#N)cc1Br` (stereo not shown) [Example 50.6], for which the IC50 came out at 1.2 nM. For `CCS(=O)(=O)c1cc(C#N)ccc1C1C2=C(CCC2=O)N(c2cccc(C(F)(F)F)c2)C(=O)N1C(=O)NC` (stereo not shown) [Example 50.7], the half-maximal inhibitory concentration (IC50) was less than 1 nM.

As to `CCNC(=O)N1C(=O)N(c2cccc(C(F)(F)F)c2)C2=C(C(=O)CC2)C1c1ccc(C#N)cc1Cl` (stereo not shown) [Example 51.2], the IC50 was less than 1 nM. For the compound `CCNC(=O)N1C(=O)N(c2cccc(C(F)(F)F)c2)C2=C(C(=O)CC2)C1c1ccc(C#N)cc1S(=O)(=O)CC` (stereo not shown) [Example 51.3], the IC50 is less than 1 nM. Take `CCNC(=O)N1C(=O)N(c2cccc(C(F)(F)F)c2)C2=C(C(=O)CC2)C1c1ccc(C#N)cc1[S+](C)[O-]` (stereo not shown) [Example 51.4]: the IC50 is less than 1 nM. On the same count and under the same terms, with `N#Cc1ccc(C2C3=C(CCC3=O)N(c3cccc(C(F)F)c3)C(=O)N2C(=O)NCCCO)cc1` (stereo not shown) [Example 52, 4-(4-Cyanophenyl)-1-(3-(difluoromethyl)phenyl)-N-(3-hydroxypropyl)-2,5-dioxo-4,5,6,7-tetrahydro-1H-cyclopenta[d]pyrimidine-3(2H)-carboxamide] the figure was less than 1 nM. Turning to `COCCNC(=O)N1C(=O)N(c2cccc(C(F)F)c2)C2=C(C(=O)CC2)C1c1ccc(C#N)cc1` (stereo not shown) [Example 52.4], the IC50 is less than 1 nM. As to `N#Cc1ccc([C@H]2C3=C(CCC3=O)N(c3cccc(C(F)F)c3)C(=O)N2C(=O)NCCCO)cc1` [Example 52B, (S)-4-(4-Cyanophenyl)-1-(3-(difluoromethyl)phenyl)-N-(3-hydroxypropyl)-2,5-dioxo-4,5,6,7-tetrahydro-1H-cyclopenta[d]pyrimidine-3(2H)-carboxamide], the IC50 worked out at 619 nM. Turning to `CNC(=O)N1C(=O)N(c2cccc(C(F)F)c2)C2=C(C(=O)CC2)C1c1ccc(C#N)cc1S(C)(=O)=O` (stereo not shown) [Example 53.1], the IC50 is less than 1 nM. Still for that read-out and setting: with `CCNC(=O)N1C(=O)N(c2cccc(C(F)F)c2)C2=C(C(=O)CC2)C1c1ccc(C#N)cc1S(C)(=O)=O` (stereo not shown) [Example 53.2] the figure was less than 1 nM; with `CC(C)(O)CNC(=O)N1C(=O)N(c2cccc(C(F)F)c2)C2=C(C(=O)CC2)C1c1ccc(C#N)cc1S(C)(=O)=O` (stereo not shown) [Example 53.5], less than 1 nM; with `CS(=O)(=O)N1C(=O)N(c2ccnc(C(F)(F)F)c2)C2=C(C(=O)CC2)C1c1ccc(C#N)cc1` (stereo not shown) [Example 57, 4-(3-(Methylsulfonyl)-2,5-dioxo-1-(2-(trifluoromethyl)pyridin-4-yl)-2,3,4,5,6,7-hexahydro-1H-cyclopenta[d]pyrimidin-4-yl)benzonitrile], 34.9 nM.

Test system in another data set: not listed separately
The data set can be described thus: Aqueous solubility. The note with it: McIlvaine buffer pH 6.8, 2.5% DMSO, 24 h shaking. In kind it is physicochemical. On the procedure:
Assay for Determination of Aqueous Solubility […] After 24 h of shaking, the solutions or suspensions are filtered and analyzed by LC-UV. The amount dissolved in buffer is compared to the amount dissolved in the acetonitrile/water (1/1) solution.
`CN(C)CCNC(=O)N1C(=O)N(c2cccc(C(F)(F)F)c2)C2=C(C(=O)CC2)C1c1ccc(C#N)cc1` (stereo not shown) [Example 7.5] gave an Aqueous solubility of 104 µg/mL. Compound `CN1CC(NC(=O)N2C(=O)N(c3cccc(C(F)(F)F)c3)C3=C(C(=O)CC3)C2c2ccc(C#N)cc2)CC1=O` (stereo not shown) [Example 7.9] registered an Aqueous solubility of 106 µg/mL.

Test system in the next data set: not listed separately
The data set can be described thus: Metabolic stability with human liver microsomes. The data set is classed as in vitro ADME. Particulars: human, microsomes, pH 7.6.
Compound `CNC(=O)N1C(=O)N(c2cccc(C(F)(F)F)c2)C2=C(C(=O)CC2)C1c1ccc(C#N)cc1OC` (stereo not shown) [Example 50.3] showed a half-life at 1 μM of more than 2.17 h.

The same data set, now with this note: pooled human liver microsomes, 1 mg/ml protein, 1 μM test compound, 37° C., NADPH.
As to `CS(=O)(=O)c1cc(C#N)ccc1C1C2=C(CCC2=O)N(c2cccc(C(F)(F)F)c2)C(=O)N1CC(=O)N1CC2CC2C1` (stereo not shown) [Example 22.4], the “t1/2 INVITRO” value is more than 2.17 h.

Test system in a further data set: not listed separately
The data set can be described thus: Drug transport across human Caco-2 cells. In kind it is in vitro ADME. Particulars: human, Caco-2, pH 7.2, Caco-2 monolayers, apical-to-basal, pH 7.2, 37° C.; read-out: PEAB. (In general: Caco-2 cells form a polarised layer with tight junctions and transporters.)
For the compound `CNC(=O)N1C(=O)N(c2cccc(C(F)(F)F)c2)C2=C(C(=O)CC2)C1c1ccc(C#N)cc1OC` (stereo not shown) [Example 50.3], the Papp A→B at 10 µM worked out at 72.4 ×10⁻⁶ cm/s.

Still in this data set, the particulars now being: human, Caco-2, pH 7.2, Caco-2 monolayers, basal-to-apical, pH 7.2, 37° C.; read-out: PEBA.
On to `CNC(=O)N1C(=O)N(c2cccc(C(F)(F)F)c2)C2=C(C(=O)CC2)C1c1ccc(C#N)cc1OC` (stereo not shown) [Example 50.3], for which the Papp B→A at 10 µM came to 68.1 ×10⁻⁶ cm/s.

(Values after patent US9290459B1, “Substituted bicyclic dihydropyrimidinones and their use as inhibitors of neutrophil elastase activity” (Boehringer Ingelheim International GmbH, priority 2013, dated 2016).)
